# Assay results published in ChEMBL document CHEMBL3885881, “DrugMatrix”.
# Species on record: Rattus norvegicus
# Experiment: DrugMatrix - Regimen: Daily Repeat
# Type: toxicity, organism-based, Sprague-Dawley
# Parameters: regimen Daily Repeat, gender Male, age 6-8 weeks
# Details: in vivo, po, route oral GAVAGE, vehicle .5 % CMC; for ABSOLUTE BASOPHIL / ABSOLUTE EOSINOPHIL / ABSOLUTE LYMPHOCYTE / ABSOLUTE MONOCYTE / ABSOLUTE SEGMENTED NEUTROPHIL / BASOPHIL / EOSINOPHIL / ERYTHROCYTE COUNT / HEMATOCRIT / HEMOGLOBIN / LEUKOCYTE COUNT / LYMPHOCYTE / MEAN CORPUSCULAR HEMOGLOBIN / MEAN CORPUSCULAR HEMOGLOBIN CONCENTRATION / MEAN CORPUSCULAR VOLUME / MONOCYTE / NEUTROPHIL / NUCLEATED RED BLOOD CELLS / PLATELET COUNT: tissue Blood; for ALANINE AMINOTRANSFERASE / ALBUMIN / ALKALINE PHOSPHATASE / ASPARTATE AMINOTRANSFERASE / BLOOD UREA NITROGEN / CARBON DIOXIDE / CHLORIDE / CHOLESTEROL / CREATINE PHOSPHOKINASE / CREATININE / GLUCOSE / LACTATE DEHYDROGENASE / LIPASE / PHOSPHORUS / POTASSIUM / SODIUM / TOTAL BILIRUBIN / TOTAL PROTEIN / URIC ACID: tissue Plasma
# [1] = 1 mg/kg, 120 h, dose level Low, time 5 day
# [2] = 1300 mg/kg, 72 h, dose level High, time 3 day
# [3] = 1300 mg/kg, 120 h, dose level High, time 5 day
structure (smiles),measurement,setting,value
CCOc1nc2cccc(C(=O)O)c2n1Cc1ccc(-c2ccccc2-c2nnn[nH]2)cc1,ABSOLUTE BASOPHIL,[1],0 CELLS/uL
same,ABSOLUTE EOSINOPHIL,[1],0 CELLS/uL
same,ABSOLUTE LYMPHOCYTE,[1],10713.33 CELLS/uL
same,ABSOLUTE MONOCYTE,[1],81.33 CELLS/uL
same,ABSOLUTE SEGMENTED NEUTROPHIL,[1],1172 CELLS/uL
same,BASOPHIL,[1],0%
same,EOSINOPHIL,[1],0%
same,ERYTHROCYTE COUNT,[1],5.35 x10E6/uL
same,HEMATOCRIT,[1],34.57%
same,HEMOGLOBIN,[1],13.63 G/DL
same,LEUKOCYTE COUNT,[1],11.97 x10E3/uL
same,LYMPHOCYTE,[1],89.67%
same,MEAN CORPUSCULAR HEMOGLOBIN,[1],25.5 pg
same,MEAN CORPUSCULAR HEMOGLOBIN CONCENTRATION,[1],39.43 G/DL
same,MEAN CORPUSCULAR VOLUME,[1],64.67 fL
same,MONOCYTE,[1],0.67%
same,NEUTROPHIL,[1],9.67%
same,NUCLEATED RED BLOOD CELLS,[1],0 /100WBC
same,PLATELET COUNT,[1],1267.33 x10E3/uL
same,ALANINE AMINOTRANSFERASE,[1],54 u/L
same,ALBUMIN,[1],4.1 G/DL
same,ALKALINE PHOSPHATASE,[1],389.33 u/L
same,ASPARTATE AMINOTRANSFERASE,[1],76.67 u/L
same,BLOOD UREA NITROGEN,[1],18.33 mg/dL
same,CARBON DIOXIDE,[1],27 mmol/L
same,CHLORIDE,[1],104.33 MEQ/L
same,CHOLESTEROL,[1],70.33 mg/dL
same,CREATINE PHOSPHOKINASE,[1],187.67 u/L
same,CREATININE,[1],0.19 mg/dL
same,GLUCOSE,[1],161.33 mg/dL
same,LACTATE DEHYDROGENASE,[1],120.67 u/L
same,LIPASE,[1],10.67 u/L
same,PHOSPHORUS,[1],12.2 mg/dL
same,POTASSIUM,[1],5.83 MEQ/L
same,SODIUM,[1],144.5 MEQ/L
same,TOTAL BILIRUBIN,[1],0.2 mg/dL
same,TOTAL PROTEIN,[1],5.97 G/DL
same,URIC ACID,[1],1.6 mg/dL
same,ABSOLUTE BASOPHIL,[2],0 CELLS/uL
same,ABSOLUTE EOSINOPHIL,[2],27.67 CELLS/uL
same,ABSOLUTE LYMPHOCYTE,[2],7595.67 CELLS/uL
same,ABSOLUTE MONOCYTE,[2],24.33 CELLS/uL
same,ABSOLUTE SEGMENTED NEUTROPHIL,[2],519 CELLS/uL
same,BASOPHIL,[2],0%
same,EOSINOPHIL,[2],0.33%
same,ERYTHROCYTE COUNT,[2],5.08 x10E6/uL
same,HEMATOCRIT,[2],32.2%
same,HEMOGLOBIN,[2],13.13 G/DL
same,LEUKOCYTE COUNT,[2],8.17 x10E3/uL
same,LYMPHOCYTE,[2],93%
same,MEAN CORPUSCULAR HEMOGLOBIN,[2],25.87 pg
same,MEAN CORPUSCULAR HEMOGLOBIN CONCENTRATION,[2],40.8 G/DL
same,MEAN CORPUSCULAR VOLUME,[2],63.43 fL
same,MONOCYTE,[2],0.33%
same,NEUTROPHIL,[2],6.33%
same,NUCLEATED RED BLOOD CELLS,[2],0 /100WBC
same,PLATELET COUNT,[2],1033.67 x10E3/uL
same,ALANINE AMINOTRANSFERASE,[2],54 u/L
same,ALBUMIN,[2],4.33 G/DL
same,ALKALINE PHOSPHATASE,[2],351.67 u/L
same,ASPARTATE AMINOTRANSFERASE,[2],93 u/L
same,BLOOD UREA NITROGEN,[2],27.33 mg/dL
same,CARBON DIOXIDE,[2],32 mmol/L
same,CHLORIDE,[2],102 MEQ/L
same,CHOLESTEROL,[2],73 mg/dL
same,CREATINE PHOSPHOKINASE,[2],813.67 u/L
same,CREATININE,[2],0.48 mg/dL
same,GLUCOSE,[2],143 mg/dL
same,LACTATE DEHYDROGENASE,[2],189.33 u/L
same,LIPASE,[2],10.33 u/L
same,PHOSPHORUS,[2],12.17 mg/dL
same,POTASSIUM,[2],7.02 MEQ/L
same,SODIUM,[2],143.6 MEQ/L
same,TOTAL BILIRUBIN,[2],0.23 mg/dL
same,TOTAL PROTEIN,[2],5.93 G/DL
same,URIC ACID,[2],0.93 mg/dL
same,ABSOLUTE BASOPHIL,[3],0 CELLS/uL
same,ABSOLUTE EOSINOPHIL,[3],140.67 CELLS/uL
same,ABSOLUTE LYMPHOCYTE,[3],14776.67 CELLS/uL
same,ABSOLUTE MONOCYTE,[3],166.33 CELLS/uL
same,ABSOLUTE SEGMENTED NEUTROPHIL,[3],1516.33 CELLS/uL
same,BASOPHIL,[3],0%
same,EOSINOPHIL,[3],0.67%
same,ERYTHROCYTE COUNT,[3],5.54 x10E6/uL
same,HEMATOCRIT,[3],34.57%
same,HEMOGLOBIN,[3],13.97 G/DL
same,LEUKOCYTE COUNT,[3],16.6 x10E3/uL
same,LYMPHOCYTE,[3],89.33%
same,MEAN CORPUSCULAR HEMOGLOBIN,[3],25.23 pg
same,MEAN CORPUSCULAR HEMOGLOBIN CONCENTRATION,[3],40.43 G/DL
same,MEAN CORPUSCULAR VOLUME,[3],62.43 fL
same,MONOCYTE,[3],1%
same,NEUTROPHIL,[3],9%
same,NUCLEATED RED BLOOD CELLS,[3],0 /100WBC
same,PLATELET COUNT,[3],1315 x10E3/uL
same,ALANINE AMINOTRANSFERASE,[3],42.33 u/L
same,ALBUMIN,[3],4.33 G/DL
same,ALKALINE PHOSPHATASE,[3],320.67 u/L
same,ASPARTATE AMINOTRANSFERASE,[3],108 u/L
same,BLOOD UREA NITROGEN,[3],32.33 mg/dL
same,CARBON DIOXIDE,[3],24.67 mmol/L
same,CHLORIDE,[3],105 MEQ/L
same,CHOLESTEROL,[3],61.67 mg/dL
same,CREATINE PHOSPHOKINASE,[3],994.33 u/L
same,CREATININE,[3],0.19 mg/dL
same,GLUCOSE,[3],134 mg/dL
same,LACTATE DEHYDROGENASE,[3],1053.67 u/L
same,LIPASE,[3],10 u/L
same,PHOSPHORUS,[3],11.2 mg/dL
same,POTASSIUM,[3],6.2 MEQ/L
same,SODIUM,[3],143.9 MEQ/L
same,TOTAL BILIRUBIN,[3],0.2 mg/dL
same,TOTAL PROTEIN,[3],6.2 G/DL
same,URIC ACID,[3],1.13 mg/dL
